From patent US20060106028A1, “Polycyclic aromatics and derivatives thereof and processes for their preparation” (priority 2004, published 2006)
Converted amounts (≈) assume the structure as drawn. Where two headings read alike, the source gives them in different places.

Tests used:
Format in all cases: cell-based
[1] = system: HT-29 (colorectal carcinoma); test: In vitro tumor growth inhibition (GI50, propidium iodide); conditions: Homo sapiens, 96 hrs
[2] = system: MDA-MB-231 (mammary gland adenocarcinoma); test: as above; conditions: Homo sapiens, 96 hrs
[3] = system: PC-3 (prostate adenocarcinoma); test: as above; conditions: 96 hrs
SF268 (CNS) = test: as above; conditions: Homo sapiens; SF-268; 96 hrs
[4] = system: Staphylococcus aureus (ATCC™ 6538P); test: Antibacterial activity, MIC (NCCLS M7-A5); conditions: MH medium, 35° C., 16 to 20 hours
[5] = system: Staphylococcus aureus MRS3 (ATCC™ 700699); test: Antibacterial activity, MIC (NCCLS M7-A5); conditions: MH medium, 35° C., 16 to 20 hours
[6] = system: Enterococcus faecalis VRE-1 (ATCC™ 29212); test: Antibacterial activity, MIC (NCCLS M7-A5); conditions: BHI+ medium
[7] = system: Enterococcus faecalis VRE-2 (ATCC™ 51299); test: Antibacterial activity, MIC (NCCLS M7-A5); conditions: BHI+ medium, 35° C., 16 to 20 hours
[8] = system: Streptococcus pneumoniae (LSPQ 3412); test: Antibacterial activity, MIC (NCCLS M7-A5); conditions: MH medium +2% lysed horse blood
[9] = system: Streptococcus pneumoniae PenR (LSPQ 3349); test: Antibacterial activity, MIC (NCCLS M7-A5); conditions: MH medium +2% lysed horse blood
[10] = system: Clostridium difficile (ATCC™ 9689); test: Antibacterial activity, MIC (NCCLS M11-A5, anaerobic); conditions: Clostridioides difficile
Method: Antibacterial activity of Compounds 1 and 2 (Table 7) was measured by determining the minimal inhibitory concentration (MIC) necessary to obtain a complete inhibition of bacteria growth in seven indicator strains, namely Staphylococcus aureus (ATCC™ 6538P), Staphylococcus aureus MRS3 (ATCC™ 700699), Enterococcus faecalis VRE-1 (ATCC™ 29212), Enterococcus faecalis VRE-2 (ATCC™ 51299), Escherichia coli (ATCC™ 25922), Streptococcus pneumoniae (LSPQ 3412) and Streptococcus pneumoniae PenR (LSPQ 3349). Indicator strains preparation and MIC determination were performed according to the National Committee for Clinical Laboratory Standards (NCCLS) guideline M7-A5 Methods for Dilution Antimicrobial Susceptibility Tests for Bacteria That Grow Aerobically; Approved Standard-Fifth Edition. (NCCLS document M7-A5, ISBN 1-56238-394-9; NCCLS, 940 West Valley Road, Suite 1400, Wayne, Pa. 19087-1898 USA), the content of which is incorporated herein by reference. MIC determination against C. difficile was performed according to National Committee for Clinical Laboratory Standards (NCCLS) guideline M11-A5 Methods for Antimicrobial Susceptibility Testing of Anaerobic Bacteria.
Compounds 1 and 2 were prepared as 100× stock solutions in DMSO, with concentrations ranging from 3.2 mg/mL to 0.003 mg/mL (a two-fold dilution series over 11 points). An aliquot of each 100× stock solution was diluted 50-fold in test medium described below to give a set of eleven (11) 2× solutions. 50 μL of each of the eleven 2× solutions was aliquoted into the corresponding well of a 12-well row, with the final well reserved for medium alone control.
Vancomycin (Sigma™), used as positive control compound, was prepared as 2× stock solutions in Mueller-Hinton test medium ranging from 64 μg/mL to 0.06 μg/ml (a two-fold dilution series over 11 points). An aliquot of 50 μL corresponding to each concentration (at 2×) was then transferred to 96-well microplates to obtain a series of eleven two-fold dilutions.
An isolated colony of each of the indicator strains was used to inoculate tubes containing 2 mL of test medium. […]

[11] = system: Escherichia coli (ATCC™ 25922); test: Antibacterial activity (NCCLS M7-A5); conditions: MH medium
[12] = system: Saccharomyces cerevisiae FHCRC-50014; test: Antifungal activity, MIC (NCCLS M27-A); conditions: FHCRC50014, after 24 hours, YPD medium
Method: (§1) Testing of antifungal activity was performed according to NCCLS method (NCCLS. Reference Method for Broth Dilution Antifungal Susceptibility Testing of Yeasts; Approved Standard. NCCLS document M27-A (ISBN 1-56238-328-0). NCCLS, 940 West Valley Road, Suite 1400, Wayne, Pa. 19087-1898 USA; www.nccls.org.). Compound 1 was prepared as 100× stock solutions in DMSO, with concentrations ranging from 3.2 mg/mL to 0.003 mg/mL (a two-fold dilution series over 11 points). An aliquot of each 100× stock solution was diluted 50-fold in test medium described below to give a set of eleven (11) 2× solutions. 50 μL of each of the eleven 2× solutions was aliquoted into the corresponding well of a 12-well row, with the final well reserved for medium alone control. Inoculum density for each indicator strain was adjusted to OD600=0.1 in 5 mL 0.85% saline, then further diluted 1/1000 in YPD medium. 50 μL of the final dilution (in test medium) of each indicator strain was added to each well of a 12-well row. This brings the final dilution of the test article or control compound in solution to 1×. The final inoculum was approximately 5×10^4 CFU/ml.
(§2) Bacterial strains Streptococcus pneumoniae LSPQ 3412 and LSPQ 3349 were obtained from the “Laboratoire de Sante Publique du Quebec”. Saccharomyces cerevisiae FHCRC-50014 and FHCRC-50514 were obtained from the “Fred Hutchison Cancer Research Center”.

[13] = system: Saccharomyces cerevisiae FHCRC-50514; test: Antifungal activity, MIC (NCCLS M27-A); conditions: FHCRC50514, after 24 hours, YPD medium
Method: as §1, §2

Row | Structure (SMILES) | GI50 [1] | GI50 [2] | GI50 [3] | GI50 (SF268 (CNS)) | MIC [4] | MIC [5] | MIC ([6]; 35° C., 16 to 20 hours) | MIC [7] | MIC [8] | MIC [9] | MIC ([10]; Brucella medium with hemin, vitamin K1 and 5% lysed horse blood, read-out: MIC) | Antibacterial activity [11] | MIC [12] | MIC [13] | MIC ([6]; when tested as control with Compound 2) | MIC [10]
1 | CCC(C)c1cc2c(=O)c3ccc4c(OC)c5c(=O)c6c(O)ccc(O)c6c(=O)c5c(O)c4c3c(=O)c2c(=O)n1CC(=O)N1CC(C(=O)OC)NC(=O)C1C (stereo not shown) [Compound 2] | 16.1 µM | 4.04 µM | 4.61 µM | 2.63 µM | 0.0625 mg/L (≈ 0.0831 µM) | 0.125 mg/L (≈ 0.166 µM) | 1 mg/L (≈ 1.33 µM) | 1 mg/L (≈ 1.33 µM) | 1 mg/L (≈ 1.33 µM) | 1 mg/L (≈ 1.33 µM) | 2 mg/L (≈ 2.66 µM) | inactive |  |  |  | 
2 | OC(Cn1cncn1)(Cn1cncn1)c1ccc(F)cc1F [Fluconazole, reference compound] |  |  |  |  |  |  |  |  |  |  |  |  | 8 mg/L (≈ 26.1 µM) | 0.25 to 0.5 mg/L (≈ 0.816 to 1.63 µM) |  | 
3 | CN[C@H](CC(C)C)C(=O)N[C@H]1C(=O)N[C@@H](CC(N)=O)C(=O)N[C@H]2C(=O)N[C@H]3C(=O)N[C@H](C(=O)N[C@H](C(=O)O)c4cc(O)cc(O)c4-c4cc3ccc4O)[C@H](O)c3ccc(c(Cl)c3)Oc3cc2cc(c3O[C@@H]2O[C@H](CO)[C@@H](O)[C@H](O)[C@H]2O[C@H]2C[C@](C)(N)[C@H](O)[C@H](C)O2)Oc2ccc(cc2Cl)[C@H]1O [Vancomycin, reference compound] |  |  |  |  | 1 mg/L (≈ 0.69 µM) | 4 mg/L (≈ 2.76 µM) | 8 mg/L (≈ 5.52 µM) | 32 mg/L (≈ 22.1 µM) | 0.5 mg/L (≈ 0.345 µM) | 0.5 mg/L (≈ 0.345 µM) |  |  |  |  | 4 mg/L (≈ 2.76 µM) | 0.5 mg/L (≈ 0.345 µM)
